One test concerns HeLa cells. Description: Annexin V-FITC / propidium iodide flow cytometry, HeLa. In kind it is cell-based. The settings on record: 200 µM, 24 h, non-treated control 5.4%. On the procedure: (§1) HeLa, U87, BICR18, EUFA30 cell lines were cultured in DMEM medium (Life Technology) supplemented with 10% fetal bovine serum (Life Technology) and 0.1% antibiotics, penicillin and streptomycin (Life Technology). Cells were grown in a humidified atmosphere of CO2/air (5/95%) at 37 °C.
(§2) The Annexin V-FITC apoptosis detection kit (BD Biosciences) was used to detect apoptosis by flow cytometry. Cells were seeded at Petri dishes, cultured for 18 h with tested agents applied for 24 h. DMSO was added as the non-treated control and camptothecin (CPT) as the positive control. Subsequently, cells were washed with PBS, resuspended in binding buffer at a concentration of 2 × 10^6 cells/mL, and anti-Annexin V FITC-conjugated antibody and propidium iodide were added to 100 µL aliquots. The mixtures were incubated for 15 min at room temperature, supplemented with binding buffer to 500 µL and processed by BD FACSCalibur (BD Biosciences). Data were analyzed in Flowing Software version 2.5.1 (Flowing Software, http://www.uskonaskel.fi/flowingsoftware).
Background: In flow cytometry, cells or beads pass a laser one at a time.

For test [1], the system named is EUFA30, HeLa, BICR18, U87 cells. Description: Alamar Blue cytotoxicity assay, statements over all tested cell lines. The format is cell-based. To be noted: Homo sapiens, concentrations 1-300 µM, group range = lowest to highest value, read-out: IC50 across the tested cell lines. On the procedure:
as §1
(§3) Exponentially growing cells were seeded onto a 96-well plate at the density of 2 × 10^3 cells/well, cultured for 18 h, and treated with newly synthesized derivatives at concentrations 1–300 µM, or with DMSO as a control, for 24 or 48 h. Alamar Blue (Invitrogen) was added accordingly to manufacturer protocol. After 4 h, light emission at 590 nm was measured with excitation at 560 nm using a scanning multiwell spectrophotometer (DTX 880, Beckman Coulter). The experiments were carried out at least three times with three replicates for each inhibitor concentration. After background subtraction, inhibition rate, IC50 was calculated as the concentration of the component inhibiting cell growth by 50%. All the calculations were performed using Origin 9.0 software.

In test [2] the test system is BICR18 cells (laryngeal squamous cell carcinoma). Description: Alamar Blue cytotoxicity assay, BICR18. The format is cell-based. The settings on record: for IC50: read-out: IC50 based on survival of cells; for inhibition at 300 µM: bracketed values, read-out: proliferation inhibition expressed as a percentage at highest concentration used. The procedure:
as §1, §3
For orientation: The colour change of resazurin is a common sign of viable cells or microbes.

Test [3] has as its system U87 cells (human primary glioblastoma). Briefly: Alamar Blue cytotoxicity assay, U87. In kind it is cell-based. To be noted: U-87 MG; for IC50: read-out: IC50 based on survival of cells; for inhibition at 300 µM: bracketed values, read-out: proliferation inhibition expressed as a percentage at highest concentration used. The procedure: as §1, §3
A further test has as its system EUFA30 cells. Briefly: Annexin V-FITC / propidium iodide flow cytometry, EUFA30. The format is cell-based, human. To be noted: EUFA30, 200 µM, 24 h; for dead cell fraction: early apoptosis: non-treated control 0.3%; for dead cell fraction: late apoptosis: non-treated control 0.4%; for dead cell fraction: necrosis: non-treated control 5.7%. The procedure:
as §1, §2

In test [4] the test system is HeLa cells (cervix adenocarcinoma). Briefly: Alamar Blue cytotoxicity assay, HeLa. The settings on record: Homo sapiens; for inhibition at 300 µM: bracketed values, read-out: proliferation inhibition expressed as a percentage at highest concentration used; for IC50: read-out: IC50 based on survival of cells. The format is cell-based. On the procedure: as §1, §3
Test [5] has as its system EUFA30 cells (non-cancerous human fibroblasts). Description: Alamar Blue cytotoxicity assay, EUFA30. The format is cell-based. To be noted: Fibroblast; for inhibition at 300 µM: bracketed values, read-out: proliferation inhibition expressed as a percentage at highest concentration used; for IC50: read-out: IC50 based on survival of cells. The procedure: as §1, §3
[6] abbreviates: BICR18, 48 h of treatment, N.A. = not active.

Read-outs that look alike come from different tables or passages of the source.

On to `CN1C(=O)c2cc(Cl)c(Cl)cc2C(=O)Nc2ccccc21` [Compound 3g, 8,9-dichloro-5-methyl-5,12-dihydrodibenzo[b,f][1,4]diazocine-6,11-dione], for which, in the test with HeLa cells, the “number of necrotic cells” value was 8.8%. Further, the 50% inhibitory concentration (IC50) – broadly, the concentration needed to halve the response being measured – in test [1] is 93.7 to 323 µM; in test [2] (BICR18, 24 h of treatment), 266 ± 27.6 µM; in test [3] (U87, 24 h of treatment), 323 ± 23.9 µM. Further, the inhibition at 300 µM turned out to be 12.3% in test [2] (BICR18, 48 h); 2.4% in test [3] (U87, 48 h); 43.1% in test [4] (24 h); 5.3% in test [4] (48 h); 41.6% in test [5] (EUFA30, 24 h); 29.5% in test [5] (EUFA30, 48 h). Besides, the “dead cell fraction: early apoptosis” value in the test with EUFA30 cells was 5.0%. Moreover, the “dead cell fraction: late apoptosis” value in the test with EUFA30 cells stood at 1.5%. The “dead cell fraction: necrosis” value with EUFA30 cells amounted to 6.8%.
On to `CN1C(=O)c2c(Cl)c(Cl)c(Cl)c(Cl)c2C(=O)Nc2ccccc21` [Compound 3h, 7,8,9,10-tetrachloro-5-methyl-5,12-dihydrodibenzo[b,f][1,4]diazocine-6,11-dione], for which, in the test on HeLa cells, the “number of necrotic cells” value worked out at 15.3%. The IC50 was 93.7 to 323 µM in test [1]; 93.7 ± 5.2 µM in test [2] (BICR18, 24 h of treatment); 178 ± 3 µM in test [2] (setting [6]); 97.1 ± 13.2 µM in test [3] (U87, 24 h of treatment); 294 ± 22.4 µM in test [3] (U87, 48 h of treatment, N.A. = not active); 132 ± 6 µM in test [4] (24 h of treatment). The IC50 came out at 251 ± 5.1 µM in test [4] (48 h of treatment, N.A. = not active); 144 ± 10.6 µM in test [5] (EUFA30, 24 h of treatment); 153 ± 4.1 µM in test [5] (EUFA30, 48 h of treatment, N.A. = not active). Also, the “dead cell fraction: early apoptosis” value in the test on EUFA30 cells is 9.0%. Further, in the test with EUFA30 cells, the “dead cell fraction: late apoptosis” value amounted to 1.8%. Also, the “dead cell fraction: necrosis” value in the test with EUFA30 cells came to 15.6%.
On to `CCOC(=O)CN1C(=O)c2cc(Cl)c(Cl)cc2C(=O)N(C)c2ccccc21` [Compound 3n, ethyl 2-(8,9-dichloro-12-methyl-6,11-dioxo-11,12-dihydrodibenzo[b,f][1,4]diazocin-5(6H)-yl)acetate], for which the “number of necrotic cells” value in the test on HeLa cells is 11.3%. Further, the IC50 in test [1] was 93.7 to 323 µM; in test [4] (24 h of treatment) it was 311 ± 14.1 µM. Further, the inhibition at 300 µM turned out to be 20.9% in test [2] (BICR18, 24 h); 30.7% in test [3] (U87, 24 h); 41.5% in test [5] (EUFA30, 24 h). Moreover, the “dead cell fraction: early apoptosis” value with EUFA30 cells is given as 7.8%. For the same compound, the “dead cell fraction: late apoptosis” value in the test on EUFA30 cells turned out to be 1.4%. Also, the “dead cell fraction: necrosis” value in the test with EUFA30 cells came to 1.9%.
Regarding `CC(=O)N1C(=O)c2ccccc2C(=O)N(Cc2ccccc2)c2ccccc21` [Compound 3o, 5-acetyl-12-benzyl-5,12-dihydrodibenzo[b,f][1,4]diazocine-6,11-dione], the “number of necrotic cells” value in the test on HeLa cells stood at 27.7%. Further, the IC50 is 93.7 to 323 µM in test [1]; 121 ± 11.4 µM in test [2] (BICR18, 24 h of treatment); 294 ± 3.2 µM in test [2] (setting [6]); 240 ± 6.1 µM in test [3] (U87, 24 h of treatment); 169 ± 13.4 µM in test [4] (24 h of treatment); 155 ± 14.6 µM in test [5] (EUFA30, 24 h of treatment). Also, the inhibition at 300 µM came out at 33.8% in test [3] (U87, 48 h); 33.4% in test [4] (48 h); 41.8% in test [5] (EUFA30, 48 h). Further, the “dead cell fraction: early apoptosis” value in the test on EUFA30 cells came to 9.5%. For the same compound, the “dead cell fraction: late apoptosis” value in the test with EUFA30 cells is given as 6.4%. Besides, in the test with EUFA30 cells, the “dead cell fraction: necrosis” value turned out to be 0.8%.

Values taken from publication PMC7356613, “Unsymmetrically-Substituted 5,12-dihydrodibenzo[b,f][1,4]diazocine-6,11-dione Scaffold—A Useful Tool for Bioactive Molecules Design” (Molecules, 2020).
